Experimental data reported in patent publication US20200261421A1, “HETEROCYCLIC COMPOUNDS AS HIV PROTEASE INHIBITORS” (Merck Sharp & Dohme Corp., priority 2016, published 2020).

Target: T1, wild-type HIV-1 protease (Human immunodeficiency virus type 1 group M subtype B, UniProt P04585)
T1 construct: Escherichia coli expressed wild-type HIV-1 protease protein; made in house; host or cells: Escherichia coli
Assay: Assay for Inhibition of Microbial Expressed HIV Protease
Type: biochemical
Conditions: Escherichia coli expressed wild-type HIV-1 protease, peptide substrate cleavage; mean of at least two independent experiments
Method: Inhibition of Escherichia coli expressed wild-type HIV-1 protease protein was carried out with a peptide substrate [Val-Ser-Gln-Asn-Wnaphtyl)Ala-Pro-Ile-Val]. The inhibitor compound was preincubated with HIV-1 protease enzyme in assay buffer (50 mM sodium acetate, pH 5.5, 100 mM NaCl, and 0.1% BSA) for 30 minutes at room temperature. Peptide substrate was added to 400 μM in a total volume of 20 μL containing 20 pM HIV-1 protease (final) after which the reaction was incubated for 1 hour at 30° C. The reaction was quenched by the addition of formic acid and HIV protease inhibitor indinavir to 0.012% and 150 nM final concentrations, respectively. Product formation was determined after separation of product and substrate on a ZORBAX Eclipse XDB-C18 column (Aligent Technologies, Santa Clara, Calif., USA) connected to an API 4000™ mass spectrometer (AB Sciex, Pte. Ltd., Concord Ontario, Canada) with multiple reaction monitoring (transitions were 644.5/428.9 and 615.4/422.2 (M1/M3) for product and indinavir respectively). The extent of inhibition of the reaction was determined from the peak area of the products. Analysis of the products, independently synthesized, provided quantitation standards and confirmation of the product composition. […] Ic50's refer to the 50% inhibition of the cleavage of a peptide substrate by hiv protease.
Data shown in the table reflects the mean of at least two independent experiments.

Compound | IC50
CN(C)C(=O)c1cccc(CN2C(=N)NC(c3ccccc3)(c3ccc(Br)cc3)C2=O)c1 (centres unmarked) [Example 62, 3-{[4-(4-bromophenyl)-2-imino-5-oxo-4-phenylimidazolidin-1-yl]methyl}-N,N-dimethylbenzamide] | 77.3 nM
CN(C)C(=O)c1cccc(CN2C(=N)NC(c3ccccc3)(c3ccc(-c4ccccc4)cc3)C2=O)c1 (centres unmarked) [Example 45, 3-[(4-biphenyl-4-yl-2-imino-5-oxo-4-phenylimidazolidin-1-yl)methyl]-N,N-dimethylbenzamide] | 30.3 nM
CN(C)C(=O)c1cccc(CN2C(=N)NC(c3ccccc3)(c3cccc(-c4ccccc4)c3)C2=O)c1 (centres unmarked) [Example 63, 3-[(4-biphenyl-3-yl-2-imino-5-oxo-4-phenylimidazolidin-1-yl)methyl]-N,N-dimethylbenzamide] | 83.4 nM
N#Cc1ccc(CNC(=O)c2cc(CN3C(=N)NC(c4ccccc4)(c4ccccc4)C3=O)ccc2Cl)cc1 [Example 74, 2-chloro-N-(4-cyanobenzyl)-5-[(2-imino-5-oxo-4,4-diphenylimidazolidin-1-yl)methyl]benzamide] | 11.4 nM
CN(Cc1ccccc1S(C)(=O)=O)C(=O)c1cccc(CN2C(=N)NC(c3ccccc3)(c3ccccc3)C2=O)c1 [Example 23, 3-[(2-imino-5-oxo-4,4-diphenylimidazolidin-1-yl)methyl]-N-methyl-N-[2-(methylsulfonyl)-benzyl]benzamide] | 12.9 nM
CC(C)CC1(c2ccccc2)NC(=N)N(Cc2cccc(C(=O)N(C)Cc3ccc(Cl)cc3)c2)C1=O (centres unmarked) [Example 25, N-(4-chlorobenzyl)-3-{[2-imino-4-(2-methylpropyl)-5-oxo-4-phenylimidazolidin-1-yl]methyl}-N-methylbenzamide] | 13.8 nM
CC(C)CC1(c2ccccc2)NC(=N)N(Cc2ccc(Cl)c(C(=O)NCc3ccc(F)cc3)c2)C1=O (centres unmarked) [Example 72, 2-chloro-N-(4-fluorobenzyl)-5-{[2-imino-4-(2-methylpropyl)-5-oxo-4-phenylimidazolidin-1-yl]methyl}benzamide] | 9.5 nM
CN(Cc1ccc(Cl)cn1)C(=O)c1cncc(CN2C(=N)NC(c3ccc(F)cc3)(c3ccc(F)cc3)C2=O)c1 [Example 82, 5-{[4,4-bis(4-fluorophenyl)-2-imino-5-oxoimidazolidin-1-yl]methyl}-N-[(5-chloropyridin-2-yl)methyl]-N-methylpyridine-3-carboxamide] | 43.7 nM
CC(C)CCC1(c2ccccc2)NC(=N)N(Cc2ccc(C(F)(F)F)c(C(=O)NCc3ncccn3)c2)C1=O (centres unmarked) [Example 8, 5-{[2-imino-4-(3-methylbutyl)-5-oxo-4-phenylimidazolidin-1-yl]methyl}-N-(pyrimidin-2-ylmethyl)-2-(trifluoromethyl)benzamide] | 54.6 nM
CN(Cc1ccc(F)cc1)C(=O)c1ccnc(CN2C(=N)NC(c3ccccc3)(c3ccccc3)C2=O)c1 [Example 90, N-(4-fluorobenzyl)-2-[(2-imino-5-oxo-4,4-diphenylimidazolidin-1-yl)methyl]-N-methylpyridine-4-carboxamide] | 24.6 nM
CC(C)CC1(c2ccccc2)NC(=N)N(Cc2ccc(C(F)(F)F)c(C(=O)NCc3cnccn3)c2)C1=O (centres unmarked) [Example 6, 5-{[2-imino-4-(2-methylpropyl)-5-oxo-4-phenylimidazolidin-1-yl]methyl}-N-(pyrazin-2-ylmethyl)-2-(trifluoromethyl)benzamide] | 46.4 nM
CC(C)CCC1(c2ccccc2)NC(=N)N(Cc2cccc(C(=O)N(C)[C@H](C)c3ccc(F)cc3)c2)C1=O (stereo partly drawn) [Example 24, N-[(1R)-1-(4-fluorophenyl)ethyl]-3-{[2-imino-4-(3-methylbutyl)-5-oxo-4-phenylimidazolidin-1-yl]methyl}-N-methylbenzamide] | 13.2 nM
C[C@H](c1ccc(F)cc1)N(C)C(=O)c1cncc(CN2C(=N)NC(c3ccc(F)cc3)(c3ccc(F)cc3)C2=O)c1 [Example 79, 5-{[4,4-bis(4-fluorophenyl)-2-imino-5-oxoimidazolidin-1-yl]methyl}-N-[(1R)-1-(4-fluorophenyl)ethyl]-N-methylpyridine-3-carboxamide] | 13.7 nM
CC(C)CCC1(c2cccc(-c3cccnc3)c2)NC(=N)N(Cc2cccc(C(=O)N(C)Cc3ccc(C#N)cc3)c2)C1=O (centres unmarked) [Example 31, N-(4-cyanobenzyl)-3-{[2-imino-4-(3-methylbutyl)-5-oxo-4-(3-pyridin-3-ylphenyl)imidazolidin-1-yl]methyl}-N-methylbenzamide] | 19 nM
CN(Cc1ccc(Cl)cn1)C(=O)c1cccc(CN2C(=N)NC(c3ccc(F)cc3)(c3ccc(F)cc3)C2=O)c1 [Example 21, 3-{[4,4-bis(4-fluorophenyl)-2-imino-5-oxoimidazolidin-1-yl]methyl}-N-[(5-chloropyridin-2-yl)methyl]-N-methylbenzamide] | 12.7 nM
CN(Cc1ccccn1)C(=O)c1cccc(CN2C(=N)NC(c3ccc(F)cc3)(c3ccc(F)cc3)C2=O)c1 [Example 59, 3-{[4,4-bis(4-fluorophenyl)-2-imino-5-oxoimidazolidin-1-yl]methyl}-N-methyl-N-(pyridin-2-ylmethyl)benzamide] | 65.9 nM
CN(Cc1ccc(F)cc1)C(=O)c1cccc(CN2C(=N)NC(c3ccc(F)cc3)(c3ccc(F)cc3)C2=O)c1 [Example 28, 3-{[4,4-bis(4-fluorophenyl)-2-imino-5-oxoimidazolidin-1-yl]methyl}-N-(4-fluorobenzyl)-N-methylbenzamide] | 17.4 nM
C[C@H](c1ccccc1)N(C)C(=O)c1cccc(CN2C(=N)NC(c3ccccc3)(c3ccccc3)C2=O)c1 [Example 48, 3-[(2-imino-5-oxo-4,4-diphenylimidazolidin-1-yl)methyl]-N-methyl-N-[(1R)-1-phenylethyl]benzamide] | 39.6 nM
C[C@H](c1ccc(Cl)cc1)N(C)C(=O)c1cccc(CN2C(=N)NC(c3ccc(F)cc3)(c3ccc(F)cc3)C2=O)c1 [Example 41, 3-{[4,4-bis(4-fluorophenyl)-2-imino-5-oxoimidazolidin-1-yl]methyl}-N-[(1R)-1-(4-chlorophenyl)ethyl]-N-methylbenzamide] | 26.5 nM
CN(Cc1ccc(Cl)cc1)C(=O)c1cccc(CN2C(=N)NC(c3ccc(F)cc3)(c3cccc(C(N)=O)c3)C2=O)c1 (centres unmarked) [Example 19, 3-{[4-(3-carbamoylphenyl)-4-(4-fluorophenyl)-2-imino-5-oxoimidazolidin-1-yl]methyl}-N-(4-chlorobenzyl)-N-methylbenzamide] | 11.6 nM
C[C@H](c1ccc(F)cc1)N(C)C(=O)c1cccc(CN2C(=N)NC(c3ccccc3)(c3ccccc3)C2=O)c1 [Example 20, N-[(1R)-1-(4-fluorophenyl)ethyl]-3-[(2-imino-5-oxo-4,4-diphenylimidazolidin-1-yl)methyl]-N-methylbenzamide] | 11.7 nM
CN(Cc1ccc(Cl)cc1)C(=O)c1cccc(CN2C(=N)NC(c3ccc(F)cc3)(c3cccc(C#N)c3)C2=O)c1 (centres unmarked) [Example 37, N-(4-chlorobenzyl)-3-{[4-(3-cyanophenyl)-4-(4-fluorophenyl)-2-imino-5-oxoimidazolidin-1-yl]methyl}-N-methylbenzamide] | 23.5 nM
CC(C)CC1(c2ccccc2)NC(=N)N(Cc2ccc(Cl)c(C(=O)N[C@H](C)c3ccc(F)cc3)c2)C1=O (stereo partly drawn) [Example 76, 2-chloro-N-[(1R)-1-(4-fluorophenyl)ethyl]-5-{[2-imino-4-(2-methylpropyl)-5-oxo-4-phenylimidazolidin-1-yl]methyl}benzamide] | 40.1 nM
CC(C)C[C@]1(c2ccccc2)NC(=N)N([C@H](C)c2cccc(C(=O)N(C)Cc3ccc(F)cc3)c2)C1=O [Example 33, N-(4-fluorobenzyl)-3-((R)-1-((R)-2-imino-4-isobutyl-5-oxo-4-phenylimidazolidin-1-yl)ethyl)-N-methylbenzamide] | 19.8 nM
CN(Cc1ccc(F)cc1)C(=O)c1csc(CN2C(=N)NC(c3ccccc3)(c3ccccc3)C2=O)c1 [Example 94, N-(4-fluorobenzyl)-5-[(2-imino-5-oxo-4,4-diphenylimidazolidin-1-yl)methyl]-N-methylthiophene-3-carboxamide] | 8.9 nM
CN(C)C(=O)c1cccc(CN2C(=N)NC(c3ccccc3)(c3cccc(-c4ccco4)c3)C2=O)c1 (centres unmarked) [Example 56, 3-{[4-(3-furan-2-ylphenyl)-2-imino-5-oxo-4-phenylimidazolidin-1-yl]methyl}-N,N-dimethylbenzamide] | 56.3 nM
CN(C)C(=O)c1cccc(CN2C(=N)NC(c3ccc(F)cc3)(c3cccc(Br)c3)C2=O)c1 (centres unmarked) [Example 53, 3-{[4-(3-bromophenyl)-4-(4-fluorophenyl)-2-imino-5-oxoimidazolidin-1-yl]methyl}-N,N-dimethylbenzamide] | 48.6 nM
N=C1NC(c2ccccc2)(c2ccccc2)C(=O)N1Cc1ccc(Cl)c(C(=O)NCc2cnccn2)c1 [Example 73, 2-chloro-5-[(2-imino-5-oxo-4,4-diphenylimidazolidin-1-yl)methyl]-N-(pyrazin-2-ylmethyl)benzamide] | 11 nM
CN(Cc1ccccc1Cl)C(=O)c1cccc(CN2C(=N)NC(c3ccc(F)cc3)(c3ccc(F)cc3)C2=O)c1 [Example 66, 3-{[4,4-bis(4-fluorophenyl)-2-imino-5-oxoimidazolidin-1-yl]methyl}-N-(2-chlorobenzyl)-N-methylbenzamide] | 90.5 nM
